Drawing on article PMC11864979, “First-in-class ultralong-target-residence-time p38α inhibitors as a mitosis-targeted therapy for colorectal cancer” (Nature Cancer, 2025), this text covers remaining activity for one compound.

Molecules are shown by their SMILES. Where two headings read alike, the source gives them in different places.

Experiment in all cases: selectivity profiling in a panel of 340 wild-type kinases (Reaction Biology Europe)
Common to all, as to format: binding

Test [1] concerns the target T1, 340 wild-type kinases (Homo sapiens, UniProt O95819).
T1 construct: purchased Reaction Biology Europe

Test [2] has as its target T2, 340 wild-type kinases (Homo sapiens, UniProt Q9UEW8).
T2 construct: purchased Reaction Biology Europe

Test [3] deals with T3, 340 wild-type kinases (Homo sapiens, UniProt O15146).
T3 construct: purchased Reaction Biology Europe
T3 sequence (O15146 24-869): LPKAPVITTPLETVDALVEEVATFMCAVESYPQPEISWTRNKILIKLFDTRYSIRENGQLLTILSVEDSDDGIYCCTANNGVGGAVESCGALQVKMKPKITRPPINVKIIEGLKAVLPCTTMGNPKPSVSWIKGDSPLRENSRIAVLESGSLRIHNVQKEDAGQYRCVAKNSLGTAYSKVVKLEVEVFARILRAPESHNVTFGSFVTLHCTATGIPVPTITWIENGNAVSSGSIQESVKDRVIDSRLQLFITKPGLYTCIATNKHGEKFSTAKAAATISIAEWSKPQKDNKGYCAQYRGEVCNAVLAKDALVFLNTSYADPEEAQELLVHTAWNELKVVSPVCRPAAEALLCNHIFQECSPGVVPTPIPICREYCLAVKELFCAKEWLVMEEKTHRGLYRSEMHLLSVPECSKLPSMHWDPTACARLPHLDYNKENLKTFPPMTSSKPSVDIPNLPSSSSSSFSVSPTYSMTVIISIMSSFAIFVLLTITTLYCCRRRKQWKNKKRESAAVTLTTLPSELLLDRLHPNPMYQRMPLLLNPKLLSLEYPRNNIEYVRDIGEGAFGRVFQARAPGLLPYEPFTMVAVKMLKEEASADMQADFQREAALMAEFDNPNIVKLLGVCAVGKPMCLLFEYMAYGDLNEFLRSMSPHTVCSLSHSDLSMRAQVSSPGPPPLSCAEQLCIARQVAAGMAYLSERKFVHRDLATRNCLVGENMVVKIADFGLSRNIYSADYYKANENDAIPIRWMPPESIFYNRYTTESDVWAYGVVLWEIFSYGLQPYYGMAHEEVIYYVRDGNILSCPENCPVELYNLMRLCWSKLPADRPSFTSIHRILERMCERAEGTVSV

Test [4] has as its target T4, 340 wild-type kinases (Homo sapiens, UniProt P51817).
T4 construct: purchased Reaction Biology Europe
T4 sequence (P51817 1-358): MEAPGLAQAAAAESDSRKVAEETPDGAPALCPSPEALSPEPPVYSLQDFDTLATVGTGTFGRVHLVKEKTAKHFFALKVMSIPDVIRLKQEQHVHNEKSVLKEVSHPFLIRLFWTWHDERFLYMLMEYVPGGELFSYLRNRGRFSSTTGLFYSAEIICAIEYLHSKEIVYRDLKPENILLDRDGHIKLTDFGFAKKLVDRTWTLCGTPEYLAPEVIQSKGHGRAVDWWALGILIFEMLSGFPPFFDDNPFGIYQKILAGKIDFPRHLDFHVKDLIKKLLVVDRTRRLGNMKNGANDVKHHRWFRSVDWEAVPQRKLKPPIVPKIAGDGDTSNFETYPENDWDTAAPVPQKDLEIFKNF

The target in test [5] is T5, 340 wild-type kinases (Homo sapiens, UniProt Q06418).
T5 construct: purchased Reaction Biology Europe
T5 sequence (Q06418 41-890): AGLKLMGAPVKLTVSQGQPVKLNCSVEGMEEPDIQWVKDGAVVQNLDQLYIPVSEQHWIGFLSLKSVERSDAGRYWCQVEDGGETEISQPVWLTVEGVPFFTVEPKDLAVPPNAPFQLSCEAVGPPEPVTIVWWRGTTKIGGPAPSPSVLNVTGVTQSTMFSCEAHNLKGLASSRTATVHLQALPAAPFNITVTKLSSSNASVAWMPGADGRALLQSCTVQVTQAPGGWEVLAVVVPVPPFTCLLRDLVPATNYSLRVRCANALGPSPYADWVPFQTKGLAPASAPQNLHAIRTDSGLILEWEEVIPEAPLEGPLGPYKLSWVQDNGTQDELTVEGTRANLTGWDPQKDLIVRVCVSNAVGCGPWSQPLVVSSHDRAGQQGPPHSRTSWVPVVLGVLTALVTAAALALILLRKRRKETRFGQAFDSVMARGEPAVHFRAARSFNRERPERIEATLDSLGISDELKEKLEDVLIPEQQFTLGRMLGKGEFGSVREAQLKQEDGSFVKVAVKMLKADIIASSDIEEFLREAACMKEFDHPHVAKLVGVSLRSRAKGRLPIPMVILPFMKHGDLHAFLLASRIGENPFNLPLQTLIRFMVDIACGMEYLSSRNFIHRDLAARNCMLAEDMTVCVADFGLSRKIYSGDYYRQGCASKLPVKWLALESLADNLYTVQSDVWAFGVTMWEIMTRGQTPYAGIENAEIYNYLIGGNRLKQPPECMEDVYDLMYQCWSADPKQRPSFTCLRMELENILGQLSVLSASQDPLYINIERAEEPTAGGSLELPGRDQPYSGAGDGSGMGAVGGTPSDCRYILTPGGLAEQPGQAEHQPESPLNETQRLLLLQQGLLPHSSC

T1 sequence (O95819 whole entry): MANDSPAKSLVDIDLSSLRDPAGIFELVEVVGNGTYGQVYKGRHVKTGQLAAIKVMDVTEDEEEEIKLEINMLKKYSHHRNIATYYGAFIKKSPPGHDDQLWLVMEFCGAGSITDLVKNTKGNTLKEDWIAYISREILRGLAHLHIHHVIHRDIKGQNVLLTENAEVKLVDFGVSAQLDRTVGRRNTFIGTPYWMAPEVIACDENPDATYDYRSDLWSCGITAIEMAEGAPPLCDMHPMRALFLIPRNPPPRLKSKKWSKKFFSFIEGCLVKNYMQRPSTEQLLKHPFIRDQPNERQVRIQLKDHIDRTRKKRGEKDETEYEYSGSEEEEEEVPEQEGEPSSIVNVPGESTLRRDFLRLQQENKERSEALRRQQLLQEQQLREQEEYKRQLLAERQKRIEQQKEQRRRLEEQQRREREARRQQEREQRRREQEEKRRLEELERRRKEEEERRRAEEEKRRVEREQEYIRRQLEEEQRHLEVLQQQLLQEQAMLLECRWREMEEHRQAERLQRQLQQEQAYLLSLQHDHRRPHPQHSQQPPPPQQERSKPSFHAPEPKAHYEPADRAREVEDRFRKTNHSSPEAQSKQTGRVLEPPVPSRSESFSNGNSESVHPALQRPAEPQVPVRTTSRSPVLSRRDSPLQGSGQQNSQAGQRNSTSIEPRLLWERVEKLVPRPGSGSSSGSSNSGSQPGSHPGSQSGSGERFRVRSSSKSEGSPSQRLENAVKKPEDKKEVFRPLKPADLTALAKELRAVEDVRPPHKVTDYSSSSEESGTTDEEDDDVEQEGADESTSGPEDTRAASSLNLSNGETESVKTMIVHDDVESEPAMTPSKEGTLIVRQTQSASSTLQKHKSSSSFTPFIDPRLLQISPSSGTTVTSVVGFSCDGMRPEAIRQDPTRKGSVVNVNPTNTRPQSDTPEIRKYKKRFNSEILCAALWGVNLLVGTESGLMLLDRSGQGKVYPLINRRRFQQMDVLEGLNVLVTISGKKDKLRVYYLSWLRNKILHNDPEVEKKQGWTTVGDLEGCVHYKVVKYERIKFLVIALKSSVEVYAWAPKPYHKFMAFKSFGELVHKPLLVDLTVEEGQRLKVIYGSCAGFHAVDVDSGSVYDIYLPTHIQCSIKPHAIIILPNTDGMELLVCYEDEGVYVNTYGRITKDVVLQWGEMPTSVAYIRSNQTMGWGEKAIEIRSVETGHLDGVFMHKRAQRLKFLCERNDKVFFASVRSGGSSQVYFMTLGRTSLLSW

As for `CNC(=O)c1ccc2c(c1)C(=O)c1ccc(Nc3ccc(F)c(NC(=O)C4CC4)c3)cc1CC2` [Compound 2015], the remaining activity at 0.2 µM in test [1] (0.2 µM 2015, read-out: MAP4K4 residual activity) worked out at 90.2%; in test [1] (MAP4K4, 0.2 µM, read-out: residual activity), 90.2%; in test [2] (0.2 µM 2015, read-out: STK39 residual activity), 109%; in test [2] (STK39, 0.2 µM, read-out: residual activity) it was 109%; in test [3] (0.2 µM 2015, read-out: MUSK residual activity), 87.5%; in test [3] (MUSK, 0.2 µM, read-out: residual activity), 87.5%. Further, the remaining activity at 0.2 µM in test [4] (0.2 µM 2015, read-out: PRKX residual activity) was 107%; in test [4] (PRKX, 0.2 µM, read-out: residual activity), 107%; in test [5] (0.2 µM 2015, read-out: TYRO3 residual activity) it was 93.9%; in test [5] (TYRO3, 0.2 µM, read-out: residual activity), 94%. In addition, the remaining activity at 1 µM in test [1] (1 µM 2015, read-out: MAP4K4 residual activity) came to 81.8%; in test [1] (MAP4K4, 1 µM, read-out: residual activity), 81.8%; in test [2] (1 µM 2015, read-out: STK39 residual activity) it was 108%; in test [2] (STK39, 1 µM, read-out: residual activity), 108%; in test [3] (1 µM 2015, read-out: MUSK residual activity), 87.3%; in test [3] (MUSK, 1 µM, read-out: residual activity) it was 87.3%. Further, the remaining activity at 1 µM in test [4] (1 µM 2015, read-out: PRKX residual activity) came out at 97.1%; in test [4] (PRKX, 1 µM, read-out: residual activity), 97%; in test [5] (1 µM 2015, read-out: TYRO3 residual activity), 86.6%; in test [5] (TYRO3, 1 µM, read-out: residual activity), 86.6%.
